Patent US20250195212A1, “METHOD FOR GENERATING IN-SITU VASCULAR STENT AND PHOTOCURABLE DRUG-LOADED BALLOON CATHETER FOR IMPLEMENTING THE METHOD” (HANGZHOU MATRIX MEDICAL TECHNOLOGY CO., LTD., priority 2022, published 2025)

What was measured:
[1] = test system: porcine peripheral blood vessels; test: Lumen gain and protein cross-linking after angioplasty with riboflavin balloon and photo-activation
Method: A porcine peripheral blood vessel was immersed in PBS buffer. Balloons (with a pore size of 50 μm and a surface porosity of 50%) was introduced into the blood vessel. The fluid prepared in Preparation Example 1 was infused to expand the balloons from the compressed state to the inflated state at a pressure of 6 atm. While maintaining the pressure of the balloons, a light source device activated the light-guiding element to emit 450 nm light, with a photocuring duration of 5 minutes.
A porcine peripheral blood vessel was immersed in PBS buffer. Balloons prepared in Preparation Example 6 was pushed into the blood vessel. The compressed balloons were expanded by injecting fluid at a pressure of 6 atm. Then, while maintaining the pressure of the balloons, the light-guiding element emitted light with a wavelength of 450 nm, with a photocuring duration of 5 minutes.
A porcine peripheral blood vessel was immersed in PBS buffer. Balloons prepared in Preparation Example 9 was pushed into the blood vessel. The compressed balloons were expanded by injecting fluid at a pressure of 6 atm. Then, while maintaining the pressure of the balloons, the light-guiding element emitted light with a wavelength of 450 nm, with a photocuring duration of 5 minutes.
A porcine peripheral blood vessel was immersed in PBS buffer. Balloons without riboflavin were pushed into the blood vessel. […]

[2] = Permeability characterization: penetration into blood vessel slices, laser confocal microscope; type: in vitro ADME; conditions: 1 mg/mL dripped onto inner surface of 2*2 cm blood vessel slice
Method: 1 mg/mL of the photosensitive material with blood vessel repair function prepared in Example 1 was dripped onto the inner surface of the blood vessel, and the residual liquid on the inner surface of the blood vessel was wiped dry after a certain period of time, and the penetration depth in the blood vessel was measured using a laser confocal microscope.
Control group: a blood vessel was cut into 2*2 cm slices, with the inner surface facing upward and kept moist with 0.9% (by mass) physiological saline. 1 mg/mL of the third product in Example 1 was dripped onto the inner surface of the blood vessel, and the residual liquid on the inner surface of the blood vessel was wiped dry after a certain period of time, and the penetration depth in the blood vessel was measured using a laser confocal microscope.

| SMILES | protein cross-linking under photo-activation / medial fiber network of treated arteries [1] | The time when the drug is observed in the adventitia of blood vessels [2] |
| --- | --- | --- |
| Cc1cc2nc3c(=O)[nH]c(=O)nc-3n(C[C@H](O)[C@H](O)[C@H](O)CO)c2cc1C [riboflavin] | denser medial fiber network |  |
| N=C(N)NCCCC(N)C(=O)NCCCCC(NC(=O)C(N)CCCNC(=N)N)C(=O)NCCCCC(NC(=O)C(CCCCNC(=O)C(N)CCCNC(=N)N)NC(=O)C(N)CCCNC(=N)N)C(=O)NCCNC(=O)C(CCCCNC(=O)C(CCCCNc1ccc2c3c(cccc13)C(=O)N(CCOCCOCCOCCN1C(=O)c3cccc4c(NCCOCCOCCOCCN)ccc(c34)C1=O)C2=O)Nc1ccc2c3c(cccc13)C(=O)N(CCOCCOCCOCCN1C(=O)c3cccc4c(NCCOCCOCCOCCN)ccc(c34)C1=O)C2=O)NC(=O)C(CCCCNc1ccc2c3c(cccc13)C(=O)N(CCOCCOCCOCCN1C(=O)c3cccc4c(NCCOCCOCCOCCN)ccc(c34)C1=O)C2=O)Nc1ccc2c3c(cccc13)C(=O)N(CCOCCOCCOCCN1C(=O)c3cccc4c(NCCOCCOCCOCCN)ccc(c34)C1=O)C2=O (centres unmarked) [Experimental group] |  | 18 s |
